Results published in PubChem BioAssay (NCI).
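Following 48 hours of exposure in 96-well plates, responses at five concentrations were used to interpolate endpoints linearly. GI50: concentration for 50% inhibition of growth. TGI denotes the concentration required for complete inhibition of growth.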

What was measured:
Test in all cases: NCI tumour cell line growth inhibition, 48 h
[1] = system: DU-145 prostate
[2] = system: HT29 colon
[3] = system: RPMI-8226 leukemia
[4] = system: SK-MEL-28 melanoma
[5] = system: SNB-19 CNS
[6] = system: SW-620 colon
[7] = system: OVCAR-4 ovarian
[8] = system: NCI-H23 lung
[9] = system: TK-10 renal
[10] = system: OVCAR-8 ovarian
[11] = system: NCI-H460 lung
[12] = system: LOX IMVI melanoma
[13] = system: OVCAR-5 ovarian
[14] = system: MDA-MB-435
[15] = system: EKVX NSCLC
[16] = system: SK-OV-3 ovarian
[17] = system: SF-539 CNS
[18] = system: MDA-MB-231 breast
[19] = system: IGROV1 ovarian
[20] = system: T-47D breast
[21] = system: COLO 205 colon
[22] = system: SF-268 CNS
[23] = system: ACHN renal
[24] = system: CAKI-1 renal
[25] = system: HS 578T breast
[26] = system: U251 CNS
[27] = system: HL-60(TB) leukemia
[28] = system: SK-MEL-2 melanoma
[29] = system: SF-295 CNS
[30] = system: NCI-H522 lung
[31] = system: PC-3 prostate
[32] = system: HOP-92 NSCLC
[33] = system: NCI/ADR-RES ovarian
[34] = system: CCRF-CEM leukemia
[35] = system: UACC-62 melanoma
[36] = system: A549 NSCLC
[37] = system: MCF7 breast
[38] = system: OVCAR-3 ovarian
[39] = system: SNB-75 CNS
[40] = system: SK-MEL-5 melanoma
[41] = system: K-562 leukemia
[42] = system: UACC-257 melanoma
[43] = system: UO-31 renal
[44] = system: NCI-H226 lung
[45] = system: HCT-15 colon
[46] = system: HOP-62 NSCLC
[47] = system: 786-0 renal
[48] = system: MALME-3M melanoma
[49] = system: HCT-116 colon
[50] = system: RXF 393 renal
[51] = system: SN12C renal
[52] = system: KM12 colon
[53] = system: BT-549 breast
[54] = system: HCC-2998 colon
[55] = system: MOLT-4 leukemia
[56] = system: M14 melanoma
[57] = system: A498 renal

## CCCCCCCCCCCCCCCC(=O)OCC1OC(OCCCC)[C@H](O[C@@H]2OC(C)C(OC(=O)CCC)C(O)C2O)C(O)C1O (stereo partly drawn)
[1]
  GI50: 19.7 µM
  TGI: 35 µM
[2]
  GI50: 18.6 µM
  TGI: 38.7 µM
[3]
  GI50: 16.8 µM
  TGI: 33.4 µM
[4]
  GI50: 16.5 µM
  TGI: 32.1 µM
[5]
  GI50: 15.4 µM
  TGI: 32.8 µM
[6]
  GI50: 21.9 µM
  TGI: 44.5 µM
[7]
  GI50: 18.1 µM
  TGI: 34.2 µM
[8]
  GI50: 16.2 µM
  TGI: 30.2 µM
[9]
  GI50: 15.6 µM
  TGI: 30.2 µM
[10]
  GI50: 17 µM
  TGI: 32.9 µM
[11]
  GI50: 22.4 µM
  TGI: 57.8 µM
[12]
  GI50: 20 µM
  TGI: 44 µM
[13]
  GI50: 14.2 µM
  TGI: 27.6 µM
[14]
  GI50: 13.3 µM
  TGI: 27.3 µM
[15]
  GI50: 19.4 µM
  TGI: 36.5 µM
[16]
  GI50: 5.12 µM
  TGI: 16.1 µM
[17]
  GI50: 21 µM
  TGI: 36.8 µM
[18]
  GI50: 14.4 µM
  TGI: 30.2 µM
[19]
  GI50: 23.1 µM
  TGI: > 100 µM
[20]
  GI50: 18.7 µM
  TGI: 40 µM
[21]
  GI50: 17.8 µM
  TGI: 37.2 µM
[22]
  GI50: 18.4 µM
  TGI: 42.4 µM
[23]
  GI50: 18.1 µM
  TGI: 35.2 µM
[24]
  GI50: 12.9 µM
  TGI: 26.2 µM
[25]
  GI50: 16.2 µM
  TGI: 44.2 µM
[26]
  GI50: 18.8 µM
  TGI: 38.8 µM
[27]
  GI50: 14.5 µM
  TGI: 32 µM
[28]
  GI50: 41.2 µM
  TGI: > 100 µM
[29]
  GI50: 13.8 µM
  TGI: 28.2 µM
[30]
  GI50: 21.1 µM
  TGI: 46.7 µM
[31]
  GI50: 15.4 µM
  TGI: 30.5 µM
[32]
  GI50: 17 µM
  TGI: 33.2 µM
[33]
  GI50: 18 µM
  TGI: 32.3 µM
[34]
  GI50: 17.2 µM
  TGI: 35 µM
[35]
  GI50: 10.2 µM
  TGI: 23.6 µM
[36]
  GI50: 17.4 µM
  TGI: 34 µM
[37]
  GI50: 30.1 µM
  TGI: > 100 µM
[38]
  GI50: 13.4 µM
  TGI: 29.6 µM
[39]
  GI50: 14.4 µM
  TGI: 28.7 µM
[40]
  GI50: 17.7 µM
  TGI: 34.2 µM
[41]
  GI50: 16.8 µM
  TGI: 31.6 µM
[42]
  GI50: 22.6 µM
  TGI: 61.4 µM
[43]
  GI50: 28.3 µM
  TGI: > 100 µM
[44]
  GI50: 16.8 µM
  TGI: 36.2 µM
[45]
  GI50: 22.5 µM
  TGI: 55.7 µM
[46]
  GI50: 16.8 µM
  TGI: 30.8 µM
[47]
  GI50: 16.7 µM
  TGI: 30.8 µM
[48]
  GI50: 16.7 µM
  TGI: 42.4 µM
[49]
  GI50: 15.4 µM
  TGI: 28.7 µM
[50]
  GI50: 22.3 µM
  TGI: 61.2 µM
[51]
  GI50: 14.1 µM
  TGI: 28.5 µM
[52]
  GI50: 17.1 µM
  TGI: 31.9 µM
[53]
  GI50: 23.4 µM
  TGI: 41.7 µM

## O=Nn1c2ccccc2c2ccccc21
[1]
  TGI: > 100 µM
[2]
  TGI: > 100 µM
[3]
  TGI: > 100 µM
[4]
  TGI: > 100 µM
[5]
  TGI: > 100 µM
[6]
  TGI: > 100 µM
[7]
  TGI: > 100 µM
[8]
  TGI: > 100 µM
[9]
  TGI: > 100 µM
[10]
  TGI: > 100 µM
[11]
  TGI: > 100 µM
[12]
  TGI: > 100 µM
[54]
  TGI: 60.7 µM
[13]
  TGI: > 100 µM
[14]
  TGI: > 100 µM
[15]
  TGI: > 100 µM
[16]
  TGI: > 100 µM
[17]
  TGI: > 100 µM
[55]
  TGI: > 100 µM
[18]
  TGI: > 100 µM
[56]
  TGI: > 100 µM
[19]
  TGI: > 100 µM
[20]
  TGI: > 100 µM
[21]
  TGI: 33.2 µM
[22]
  TGI: > 100 µM
[23]
  TGI: > 100 µM
[24]
  TGI: > 100 µM
[25]
  TGI: > 100 µM
[26]
  TGI: > 100 µM
[27]
  TGI: > 100 µM
[57]
  TGI: 75.7 µM
[28]
  TGI: > 100 µM
[29]
  TGI: > 100 µM
[30]
  TGI: > 100 µM
[31]
  TGI: > 100 µM
[32]
  TGI: > 100 µM
[33]
  TGI: > 100 µM
[34]
  TGI: > 100 µM
[35]
  TGI: > 100 µM
[36]
  TGI: > 100 µM
[37]
  TGI: > 100 µM
[38]
  TGI: > 100 µM
[39]
  TGI: > 100 µM
[40]
  TGI: > 100 µM
[41]
  TGI: > 100 µM
[42]
  TGI: > 100 µM
[43]
  TGI: > 100 µM
[44]
  TGI: > 100 µM
[45]
  TGI: > 100 µM
[46]
  TGI: > 100 µM
[47]
  TGI: > 100 µM
[48]
  TGI: > 100 µM
[49]
  TGI: > 100 µM
[50]
  TGI: > 100 µM
[51]
  TGI: > 100 µM
[52]
  TGI: > 100 µM
[53]
  TGI: > 100 µM
